27 molecules from patent US11964052B2, “Lipid compounds and lipid nanoparticle compositions” (SUZHOU ABOGEN BIOSCIENCES CO., LTD., priority 2021, dated 2024) can be followed below.

Type in all cases: physicochemical
A short description of series [1]: Lipid nanoparticle size and polydispersity by dynamic light scattering (Malvern Zetasizer Nano ZS). The settings on record: LNP of cationic lipid/DSPC/cholesterol/PEG-lipid 50:10:38.5:1.5 with mRNA. As to the method:
(§1) Briefly, a cationic lipid provided herein, DSPC, cholesterol, and PEG-lipid were solubilized in ethanol at a molar ratio of 50:10:38.5:1.5, and mRNA were diluted in 10 to 50 mM citrate buffer, pH=4. The LNPs were prepared at a total lipid to mRNA weight ratio of approximately 10:1 to 30:1 by mixing the ethanolic lipid solution with the aqueous mRNA solution at a volume ratio of 1:3 using a microfluidic apparatus, total flow rate ranging from 9-30 mL/min. Ethanol were thereby removed and replaced by DPBS using dialysis. Finally, the lipid nanoparticles were filtered through a 0.2 μm sterile filter.
(§2) Lipid nanoparticle size were determined by dynamic light scattering using a Malvern Zetasizer Nano ZS (Malvern UK) using a 173° backscatter detection mode. The encapsulation efficiency of lipid nanoparticles were determined using a Quant-it Ribogreen RNA quantification assay kit (Thermo Fisher Scientific, UK) according to the manufacturer's instructions.

The nature of series [2]: Encapsulation efficiency of lipid nanoparticles, Quant-it Ribogreen RNA quantification assay. Conditions: LNP with mRNA. The method, then: as §1, §2
A short description of series [3]: Apparent pKa of LNP formulations, TNS fluorescence assay. The settings on record: LNP cationic lipid/DSPC/cholesterol/DMG-PEG 50/10/38.5/1.5 mol %, pH 3 to 9. The method, then: As reported in literature, the apparent pKa of LNP formulations correlates with the delivery efficiency of LNPs for nucleic acids in vivo. The apparent pKa of each formulation was determined using an assay based on fluorescence of 2-(p-toluidino)-6-napthalene sulfonic acid (TNS). LNP formulations comprising of cationic lipid/DSPC/cholesterol/DMG-PEG (50/10/38.5/1.5 mol %) in PBS were prepared as described above. TNS was prepared as a 300 uM stock solution in distilled water. LNP formulations were diluted to 0.1 mg/ml total lipid in 3 mL of buffered solutions containing 50 mM sodium citrate, 50 mM sodium phosphate, 50 mM sodium borate, and 30 mM sodium chloride where the pH ranged from 3 to 9. An aliquot of the TNS solution was added to give a final concentration of 0.1 mg/ml and following vortex mixing fluorescence intensity was measured at room temperature in a Molecular Devices Spectramax iD3 spectrometer using excitation and mission wavelengths of 325 nm and 435 nm. A sigmoidal best fit analysis was applied to the fluorescence data and the pKa value was measured as the pH giving rise to half-maximal fluorescent intensity.

For `CCCCCCCCC(CCCCCCCC)CNC(=O)CCOCC(CN(C)CCN(CCO)C1CCC1)OCCC(=O)NCC(CCCCCCCC)CCCCCCCC` (stereo not drawn) [Compound 51], in series [1], the polydispersity was 0.057 and the “size (nm)” value was 75.11 nm. The “Encapsulation Efficiency” value in series [2] is recorded as 94.7%. In addition, the “Apparant Pka” value in series [3] came out at 7.727.
In the case of `CCCCCCCCCCCCCCCCOCC(CN(CCCCCC(=O)OCCCCCCCCCC)CCN(CCO)C1CCC1)OCCCCCC` (stereo not drawn) [Compound 53], in series [1], the polydispersity is on record as 0.014 and the “size (nm)” value was determined as 90.06 nm. In addition, the “Encapsulation Efficiency” value in series [2] stood at 89.79%. The “Apparant Pka” value in series [3] came to 6.069.
On to `CCCCCCCCC(CCCCCCCC)COC(=O)CCOCC(CN(C)CCN(CCO)C1CCC1)OCCC(=O)OCC(CCCCCCCC)CCCCCCCC` (stereo not drawn) [Compound 55], for which, in series [1], the polydispersity was found to be 0.034 and the “size (nm)” value turned out to be 75.43 nm. The “Encapsulation Efficiency” value in series [2] amounted to 89.5%. Further, the “Apparant Pka” value in series [3] is given as 6.851.
On the same counts, the results for `CCCCCCCCC(CCCCCCCC)CC(=O)OCC(CCCCN(CCO)C1CCC1)COC(=O)CC(CCCCCCCC)CCCCCCCC` [Compound 56] are 0.107, 53.32 nm, 91.0% and 6.403.
On to `CCCCCCCCC(CCCCCCCC)CNC(=O)CCOCC(CN(C)CCN(CCO)C1CCCC1)OCCC(=O)NCC(CCCCCCCC)CCCCCCCC` (stereo not drawn) [Compound 57], for which, in series [1], the polydispersity was 0.055 and the “size (nm)” value is reported as 70.05 nm. Moreover, in series [2], the “Encapsulation Efficiency” value was determined as 97.0%. The “Apparant Pka” value in series [3] was 7.73.
Consider `CCCCCCCCC(CCCCCCCC)CC(=O)OCC(CCCCN(CCO)C1CCC1)COC(=O)CCCCC` (stereo not drawn) [Compound 60], for which, in series [1], the polydispersity was 0.068 and the “size (nm)” value turned out to be 73.31 nm. Moreover, the “Encapsulation Efficiency” value in series [2] was found to be 92.6%. Further, in series [3], the “Apparant Pka” value is recorded as 6.985.
On to `CCCCCCCCC(CCCCCCCC)CNC(=O)CCOC(COCCC(=O)OCC(CCCCCCCC)CCCCCCCC)CN(C)CCN(CCO)C1CCC1` (stereo not drawn) [Compound 61], for which, in series [1], the polydispersity worked out at 0.055 and the “size (nm)” value turned out to be 70.83 nm. Besides, the “Encapsulation Efficiency” value in series [2] worked out at 96.2%. For the same molecule, the “Apparant Pka” value in series [3] was 7.219.
On the same counts, the results for `CCCCCCCCCCCC(=O)OCC(CN(CCCCCC(=O)OCC(CCCCCC)CCCCCC)CCN1CCC(O)C1)OC(=O)CCCCC` (stereo not drawn) [Compound 62] are 0.075, 58.44 nm, 94.1% and 7.062.
`CCCCCCC(CCCCCC)COC(=O)CCCCCN(CCN1CCC(O)C1)CC(COC(=O)CCCCC)OC(=O)CCCCC` (stereo not drawn) [Compound 63]: in series [1], the polydispersity was 0.076 and the “size (nm)” value is reported as 150.2 nm. Further, the “Encapsulation Efficiency” value in series [2] amounted to 95.9%. Further, in series [3], the “Apparant Pka” value is 6.928.
Regarding `CCCCCCCCC(CCCCCCCC)CC(=O)OCC(CCCCN(CCN(C)CCO)C1CCC1)COC(=O)CC(CCCCCCCC)CCCCCCCC` [Compound 65], in series [1], the polydispersity is listed as 0.082 and the “size (nm)” value came to 73.61 nm. In addition, in series [2], the “Encapsulation Efficiency” value was 97.0%. In series [3], the “Apparant Pka” value amounted to 6.428.
Regarding `CCCCCCCCC(CCCCCCCC)CC(=O)OCC(CCCCN(C)CCN(CCO)C1CCC1)COC(=O)CC(CCCCCCCC)CCCCCCCC` [Compound 66], in series [1], the polydispersity was 0.044 and the “size (nm)” value is reported as 72.85 nm. The “Encapsulation Efficiency” value in series [2] is listed as 96.6%. Moreover, in series [3], the “Apparant Pka” value is reported as 6.749.
Regarding `CCCCCCCCC(CCCCCCCC)CC(=O)OCC(CCCCN(CC)CCN(CCO)C1CCC1)COC(=O)CC(CCCCCCCC)CCCCCCCC` [Compound 67], in series [1], the polydispersity is listed as 0.116 and the “size (nm)” value was 130.6 nm. For the same molecule, the “Encapsulation Efficiency” value in series [2] is listed as 91.83%. For the same molecule, the “Apparant Pka” value in series [3] was determined as 6.444.
Regarding `CCCCCCCCC(CCCCCC)CC(=O)OCC(CCCCN(CCO)C1CCCCC1)COC(=O)CC(CCCCCC)CCCCCCCC` (stereo not drawn) [Compound 68], in series [1], the polydispersity was found to be 0.084 and the “size (nm)” value was determined as 55.01 nm. Further, the “Encapsulation Efficiency” value in series [2] came to 89.42%. In addition, the “Apparant Pka” value in series [3] is 6.22.
In the case of `CCCCCCCCC(CCCCCC)CC(=O)OCC(CCCCN(CCN(CC)CCO)C1CCC1)COC(=O)CC(CCCCCC)CCCCCCCC` (stereo not drawn) [Compound 69], in series [1], the polydispersity worked out at 0.013 and the “size (nm)” value is 110.30 nm. The “Encapsulation Efficiency” value in series [2] is on record as 91.81%. Further, the “Apparant Pka” value in series [3] came out at 6.789.
For `CCCCCCCCC(CCCCCCCC)COC(=O)CCOCC(CN(C)CCN(CCO)C1CC1)OCCC(=O)OCC(CCCCCCCC)CCCCCCCC` (stereo not drawn) [Compound 70], in series [1], the polydispersity was found to be 0.049 and the “size (nm)” value stood at 78.45 nm. In addition, the “Encapsulation Efficiency” value in series [2] is recorded as 93.32%. For the same molecule, the “Apparant Pka” value in series [3] was 6.351.
For `CCCCCCCCC(CCCCCCCC)COC(=O)CCOCC(CN(C)CCN(CCO)C1CCCC1)OCCC(=O)OCC(CCCCCCCC)CCCCCCCC` (stereo not drawn) [Compound 71] the same measures were 0.077, 76.45 nm, 94.62% and 6.727.
Turning to `CCCCCCCCC(CCCCCCCC)COC(=O)CCOCC(CN(C)CCN(CCO)C1CCCCCC1)OCCC(=O)OCC(CCCCCCCC)CCCCCCCC` (stereo not drawn) [Compound 73], in series [1], the polydispersity amounted to 0.088 and the “size (nm)” value is on record as 76.26 nm. Moreover, the “Encapsulation Efficiency” value in series [2] was 94.69%. For the same molecule, the “Apparant Pka” value in series [3] is 6.616.
On the same counts, the results for `CCCCCCCCC(CCCCCCCC)COC(=O)CCOCC(CN(C)CCN(CCO)C1CCCCCCC1)OCCC(=O)OCC(CCCCCCCC)CCCCCCCC` (stereo not drawn) [Compound 74] are 0.031, 101.00 nm, 93.97% and 6.539.
On to `CCCCCCCCC(CCCCCC)CC(=O)OCC(CCCCN(CC=C(C)C)CCO)COC(=O)CC(CCCCCC)CCCCCCCC` (stereo not drawn) [Compound 77], for which, in series [1], the polydispersity was determined as 0.046 and the “size (nm)” value turned out to be 56.88 nm. In addition, the “Encapsulation Efficiency” value in series [2] was determined as 89.92%. Also, in series [3], the “Apparant Pka” value is listed as 6.439.
Take `CCCCCCCCC(CCCCCC)CC(=O)OCC(CCCCN(CC=C(C)C)CCN(CCO)C1CCC1)COC(=O)CC(CCCCCC)CCCCCCCC` (stereo not drawn) [Compound 78]: in series [1], the polydispersity worked out at 0.017 and the “size (nm)” value is on record as 159.72 nm. Besides, the “Encapsulation Efficiency” value in series [2] turned out to be 93.77%. Further, in series [3], the “Apparant Pka” value is listed as 6.166.
On to `CCCCCCCCC(CCCCCC)CC(=O)OCC(CCCCN(CCN(CCO)C1CCC1)C1CCC1)COC(=O)CC(CCCCCC)CCCCCCCC` (stereo not drawn) [Compound 79], for which, in series [1], the polydispersity is on record as 0.01 and the “size (nm)” value is 103.64 nm. Also, in series [2], the “Encapsulation Efficiency” value was found to be 91.29%. In addition, the “Apparant Pka” value in series [3] is on record as 5.927.
With `CCCCCCCCC(CCCCCC)CC(=O)OCC(CCCCN(CCN(CCC)CCO)C1CCC1)COC(=O)CC(CCCCCC)CCCCCCCC` (stereo not drawn) [Compound 80], in series [1], the polydispersity is listed as 0.027 and the “size (nm)” value is 98.95 nm. Besides, the “Encapsulation Efficiency” value in series [2] turned out to be 92.20%. Moreover, in series [3], the “Apparant Pka” value is 6.063.
For the molecule `CCCCCCCCCCC(=O)OCC(CCCCN(CCO)C1CCC1)COC(=O)CC(CCCCCC)CCCCCCCC` (stereo not drawn) [Compound 81], in series [1], the polydispersity stood at 0.023 and the “size (nm)” value stood at 72.78 nm. Also, the “Encapsulation Efficiency” value in series [2] was determined as 88.28%. The “Apparant Pka” value in series [3] stood at 6.79.
`CCCCCCCCCCC(=O)OCC(CCCCN(CCN(CCO)C1CCC1)C1CCC1)COC(=O)CC(CCCCCC)CCCCCCCC` (stereo not drawn) [Compound 82]: in series [1], the polydispersity is given as 0.079 and the “size (nm)” value is listed as 84.46 nm. In series [2], the “Encapsulation Efficiency” value is reported as 92.38%. Besides, the “Apparant Pka” value in series [3] came to 6.621.
Regarding `CCCCCCCCC(CCCCCC)CC(=O)OCC(CCCCN(CCCC)CCN(CCO)C1CCC1)COC(=O)CC(CCCCCC)CCCCCCCC` (stereo not drawn) [Compound 83], in series [1], the polydispersity is 0.019 and the “size (nm)” value is listed as 94.04 nm. The “Encapsulation Efficiency” value in series [2] is reported as 92.39%. Also, the “Apparant Pka” value in series [3] was 6.182.
`CCCCCCCCCCC(=O)OCC(CCCCN(CCO)C1CCCC1)COC(=O)CC(CCCCCC)CCCCCCCC` (stereo not drawn) [Compound 84]: in series [1], the polydispersity stood at 0.01 and the “size (nm)” value amounted to 83.05 nm. The “Encapsulation Efficiency” value in series [2] turned out to be 93.44%. In addition, the “Apparant Pka” value in series [3] was 6.785.
Take `CCCCCCCCCCC(=O)OCC(CCCCN(CCO)C1CCCCC1)COC(=O)CC(CCCCCC)CCCCCCCC` (stereo not drawn) [Compound 85]: in series [1], the polydispersity was 0.066 and the “size (nm)” value is given as 74.14 nm. Further, the “Encapsulation Efficiency” value in series [2] is 92.17%. For the same molecule, the “Apparant Pka” value in series [3] was 6.438.
